Target: T1, DCAF1 WD40 domain (residues 1077-1390) (Homo sapiens, UniProt Q9Y4B6)
T1 construct: DCAF1 WD40 domain (residues 1077-1390)
Experiment: DCAF1 binding assay by SPR (Biacore 8K+), DCAF1-3 KD
Conditions: 25 °C, read-out: DCAF1-3 SPR (KD)

T1 sequence (Q9Y4B6 1077-1390): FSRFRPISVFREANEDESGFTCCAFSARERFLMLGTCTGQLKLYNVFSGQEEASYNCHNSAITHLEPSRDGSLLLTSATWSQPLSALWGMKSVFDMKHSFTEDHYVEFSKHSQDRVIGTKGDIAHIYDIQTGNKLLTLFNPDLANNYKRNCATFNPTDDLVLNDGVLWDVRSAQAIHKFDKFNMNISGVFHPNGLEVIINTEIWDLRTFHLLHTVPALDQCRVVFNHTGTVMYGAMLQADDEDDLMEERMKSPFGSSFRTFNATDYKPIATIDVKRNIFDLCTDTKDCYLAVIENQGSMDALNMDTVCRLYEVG

| Kd | SMILES |
| --- | --- |
| > 200 µM | C=CC(=O)NC1CCN(c2ccnc(N[C@@H]3CCCN(c4cccc(F)c4)C3)c2)C1 (stereo partly drawn) [I-456] |
| 10 to 100 µM | COCCOCC[C@@H]1CN(c2cc(N3CCCCC3)ccn2)[C@@H]2CCCN(c3cccc(F)c3)[C@H]12 [I-996] |
| > 200 µM | Cc1ccc(N2CCOCC2)cc1N[C@@H]1CCCN(c2cccc(F)c2)C1 [I-70] |
| 10 to 100 µM | Cc1nc(N2CCC[C@@H](Nc3cc(N4CCOCC4)ccn3)C2)nc2ccccc12 [I-415] |
| 100 to 200 µM | Fc1cccc(N2C3CC[C@H]2CC[C@H]3Nc2nccc(N3CCOCC3)n2)c1 (stereo in doubt) [I-60] |
| > 200 µM | Fc1cccc(NC2CCCN(c3cc(N4CCOCC4)ncn3)C2)c1 (stereo not drawn) [I-179] |
| > 200 µM | c1cc(N2CCC[C@@H](Nc3cc(N4CCOCC4)ncn3)C2)c2cnccc2c1 [I-395] |
| > 200 µM | Oc1cccc(N2CCC[C@@H](Nc3cc(N4CCOCC4)ncn3)C2)c1 [I-13] |
| > 200 µM | CC(F)(c1cc(N2CCOCC2)ccn1)C1CCCN(c2cccc(F)c2)C1 (stereo not drawn) [I-266] |
| 10 to 100 µM | N#Cc1ccc(N2CCOCC2)cc1N[C@@H]1CCCN(c2cccc(F)c2)C1 [I-71] |
| > 200 µM | CCN(c1cc(N2CCOCC2)ncn1)[C@@H]1CCCN(c2cccc(F)c2)C1 [I-386] |
| 10 to 100 µM | Oc1ccc2nc(N3CCC[C@@H](Nc4cc(N5CCOCC5)ccn4)C3)ccc2c1 [I-780] |
| > 200 µM | Oc1cnc(N[C@@H]2CCCN(c3cccc(F)c3)C2)cc1N1CCOCC1 [I-409] |
| 10 to 100 µM | Fc1cccc(N2CCC[C@@H](Nc3cc([C@H]4CCCNC4)ccn3)C2)c1 [I-110] |
| 100 to 200 µM | CC(C)Oc1cncc(N2CCC[C@@H](Nc3cc(N4CCOCC4)ccn3)C2)c1 [I-433] |
| 10 to 100 µM | OCCc1ccc(N2CCC[C@@H](Nc3cc(N4CCOCC4)ccn3)C2)nc1 [I-691] |
| > 200 µM | Cc1nc(N2CCC[C@@H](Nc3cc(N4CCOCC4)ccn3)C2)ccc1CO [I-432] |
| > 200 µM | Fc1cccc(N2CCC[C@@H](N(Cc3ccccc3)c3nccc(N4CCOCC4)n3)C2)c1 [I-34] |
| > 200 µM | C=CC(=O)N1CC2(CCN(c3ccnc(N[C@@H]4CCCN(c5cccc(F)c5)C4)c3)CC2)C1 [I-465] |
| > 200 µM | COCCOCC[C@@H]1CCCN(c2ccnc(N3CC[C@@H]4[C@H]3CCCN4c3cccc(F)c3)c2)C1 [I-704] |
| > 200 µM | c1ccc(Cn2cc(N3CCC[C@@H](Nc4cc(N5CCOCC5)ccn4)C3)cn2)cc1 [I-420] |
| > 200 µM | NCc1cccc(N2CCC[C@@H](Nc3cc(N4CCOCC4)ccn3)C2)c1 [I-866] |
| > 200 µM | Nc1nc(N[C@@H]2CCCN(c3cccc(F)c3)C2)cc(N2CCOCC2)n1 [I-368] |
| 100 to 200 µM | c1ccc(Cn2ccc3c(N4CCC[C@@H](Nc5cc(N6CCOCC6)ccn5)C4)ncnc32)cc1 [I-680] |
| > 200 µM | Fc1cccc(N2CCCC(Nc3nccc(N4CCOCC4)n3)C2)c1 (stereo not drawn) [I-22] |

| Kd | SMILES |
| --- | --- |
| > 200 µM | Fc1cccc(N2CCC[C@@H](N(CCC(F)F)c3cc(N4CCOCC4)ccn3)C2)c1 [I-290] |
| 10 to 100 µM | COCCOCC[C@H]1CCCN(c2ccnc(N3CC[C@@H]4[C@H]3CCCN4c3cccc(F)c3)c2)C1 [I-713] |
| > 200 µM | Fc1cccc(N2CCC[C@@H](Nc3cc(N4CCOCC4)ncc3C(F)(F)F)C2)c1 [I-405] |
| < 10 µM | Fc1cccc(N2CCC[C@@H](Nc3cc(N4CC5CCCC5C4)ccn3)C2)c1 (stereo partly drawn) [I-575] |
| > 200 µM | c1cc(N2CCOCC2)cc(N[C@@H]2CCCN(c3ccc(C4CC4)cc3)C2)n1 [I-507] |
| 10 to 100 µM | NC[C@H]1C[C@@H](Nc2cc(N3CCCCC3)ccn2)CN(c2cccc(F)c2)C1 [I-1041] |
| > 200 µM | C=CC(=O)N1CCN(c2ccnc(N[C@@H]3CCCN(c4cccc(F)c4)C3)c2)CC1C(F)(F)F (stereo partly drawn) [I-655] |
| > 200 µM | Fc1cccc(N2CCNC(Cc3cc(N4CCCCC4)ccn3)C2)c1 (stereo not drawn) [I-743] |
| 10 to 100 µM | Cc1ccc(N2CCC[C@@H](Nc3cc(N4CCOCC4)ccn3)C2)cc1 [I-509] |
| > 200 µM | Fc1cccc(N2CCNC(Cc3cc(N4CCOCC4)ccn3)C2)c1 (stereo not drawn) [I-224] |
| < 10 µM | NC(=O)[C@@H]1C[C@@H](Nc2cc(N3CCCCC3)ccn2)CN(c2cccc(F)c2)C1 [I-1033] |
| 100 to 200 µM | Fc1cccc(N2CCC[C@@H](Nc3cc(N4CCOCC4)ncn3)C2)c1 [I-1] |
| > 200 µM | Fc1cccc(N2CCC[C@@H](Nc3cc(N4CCOCC4)ccn3)C2F)c1 (stereo partly drawn) [I-260] |
| 10 to 100 µM | C[S+]([O-])CN(c1cc(N2CCCOC2)ccn1)[C@H]1CCCN(c2cccc(F)c2)C1 (stereo partly drawn) [I-539] |
| < 10 µM | C[C@H]1CC[C@H](O)CN1c1ccnc(N2CC[C@@H]3[C@H]2CCCN3c2cccc(F)c2)c1 [I-823] |
| > 200 µM | Cc1ncc(N[C@@H]2CCCN(c3cccc(F)c3)C2)cc1N1CCOCC1 [I-545] |
| < 10 µM | CN1CCN(CC2CCN(c3ccnc(N4CC[C@@H]5[C@H]4CCCN5c4cccc(F)c4)c3)CC2)CC1 [I-815] |
| > 200 µM | Oc1c(CN2CCCCC2)cccc1[C@H]1CCCN(c2cccc(F)c2)C1 [I-731] |
| 10 to 100 µM | C=CC(=O)N(C)CCCN(C)c1ccnc(N[C@@H]2CCCN(c3cccc(F)c3)C2)c1 [I-462] |
| 10 to 100 µM | OCCCCCCCCC1CCN(c2ccnc(N3CC[C@@H]4[C@H]3CCCN4c3cccc(F)c3)c2)CC1 [I-977] |
| 100 to 200 µM | COc1c(N[C@@H]2CCCN(c3cccc(F)c3)C2)cncc1N1CCOCC1 [I-544] |
| > 200 µM | CC(=O)N(c1cc(N2CCOCC2)ccn1)[C@@H]1CCCN(c2cccc(F)c2)C1 [I-271] |
| 10 to 100 µM | NCCCc1ccc(N2CCC[C@@H](Nc3cc(N4CCOCC4)ccn3)C2)cc1 [I-856] |
| < 10 µM | C=CC(=O)NCCC1CCN(c2ccnc(N3CC[C@H]4[C@@H]3CCCN4c3cccc(F)c3)c2)CC1 [I-672] |
| > 200 µM | Fc1cccc(N2CCC[C@@H](Nc3cnnc(N4CCOCC4)c3)C2)c1 [I-381] |

Continued, compound first:

| SMILES | Kd |
| --- | --- |
| Cc1sc2c(c1C)C(c1ccc(Cl)cc1)=N[C@@H](CC(=O)NCCOCCOCCOCCOCCOCCOCCn1cc(C(=O)N[C@@H](CC(N)=O)c3cccc(Cl)c3)c(-c3ccccc3F)n1)c1nnc(C)n1-2 [I-889] | > 200 µM |
| COC(=O)C[C@H](NC(=O)c1cn[nH]c1-c1ccccc1F)c1cccc(Cl)c1 [I-757] | > 200 µM |
| COCc1ccc(F)c(-c2[nH]ncc2C(=O)N[C@@H](CC(N)=O)c2cccc(Cl)c2)c1 [I-248] | 10 to 100 µM |
| NC(=O)C[C@H](NC(=O)c1cn[nH]c1-c1cc(CC(=O)O)ccc1F)c1cccc(Cl)c1 [I-285] | 100 to 200 µM |
| C[C@H]1CC[C@H](c2[nH]ncc2C(=O)N[C@@H](CC(N)=O)c2cccc(Cl)c2)CC1 [I-741] | < 10 µM |
| NC(=O)C[C@H](NC(=O)c1cn[nH]c1-c1c(F)ccc(F)c1C(F)(F)F)c1cccc(Cl)c1 [I-793] | < 10 µM |
| O=C(Nc1ccc(F)c(Cl)c1)C1CCN(c2ccnc(-c3ccccc3)n2)CC1 [I-21] | > 200 µM |
| Fc1ccccc1N1CCC[C@@H](Nc2cc(N3CCOCC3)ncn2)C1 [I-3] | > 200 µM |
| Cc1cc(Cl)cc([C@@H](CC(N)=O)NC(=O)c2cn[nH]c2-c2c(C)cccc2F)c1 [I-738] | < 10 µM |
| C[C@H]1CCCC[C@H]1c1[nH]ncc1C(=O)N[C@@H](CC(N)=O)c1cccc(Cl)c1 [I-723] | < 10 µM |
| Cc1c(F)ccc(F)c1-c1c(C(=O)N[C@@H](CC(N)=O)c2cccc(Cl)c2)cn(C)c1C(=O)c1ccc(OCCOCCOCCOCCN)cc1 [I-1024] | < 10 µM |
| NC(=O)C[C@H](NS(=O)(=O)c1c[nH]nc1-c1ccccc1F)c1cccc(Cl)c1 [I-252] | > 200 µM |
| Cc1cccc(F)c1-c1[nH]ncc1C(=O)N[C@H](CC(N)=O)c1cc(Cl)cc(Cl)c1 [I-736] | < 10 µM |
| NC(=O)C[C@H](NC(=O)c1cn[nH]c1-c1ccccc1F)c1cnsc1 [I-187] | > 200 µM |
| O=C(N[C@H](c1cccc(Cl)c1)[C@@H]1CCNC1=O)c1c[nH]nc1-c1ccccc1F [I-193] | > 200 µM |
| NC(=O)C[C@H](NC(=O)c1nc(N)[nH]c1-c1ccccc1F)c1cccc(Cl)c1 [I-220] | > 200 µM |
| NC(=O)[C@@H]1CCN(C(=O)c2c[nH]nc2-c2ccccc2F)[C@@H]1c1cccc(Cl)c1 [I-204] | > 200 µM |

| SMILES | Kd |
| --- | --- |
| c1ccc2c(N3CCC[C@@H](Nc4nccc(N5CCOCC5)n4)C3)cccc2c1 [I-52] | > 200 µM |
| O=C1CC(C(NC(=O)c2cn[nH]c2-c2ccccc2F)c2cccc(Cl)c2)CN1 (stereo not drawn) [I-561] | > 200 µM |
| Cc1sc2c(c1C)C(c1ccc(Cl)cc1)=N[C@@H](CC(=O)N(C)CCOCCOCCOCCOCCOCC(=O)c1[nH]cc(C(=O)N[C@@H](CC(N)=O)c3cccc(Cl)c3)c1-c1ccccc1F)c1nnc(C)n1-2 [I-900] | < 10 µM |
| Cc1[nH]cc(C(=O)N[C@@H](CC(N)=O)c2cccc(Cl)c2)c1-c1c(F)cccc1F [I-585] | < 10 µM |
| NC(=O)C[C@H](NC(=O)c1c[nH]nc1-c1cccc2nc[nH]c12)c1cccc(Cl)c1 [I-355] | 10 to 100 µM |
| NC(=O)C[C@H](NC(=O)c1c[nH]c(-c2ccccc2)c1-c1ccccc1F)c1cccc(Cl)c1 [I-594] | < 10 µM |
| CCn1cc(C(=O)N[C@@H](CC(N)=O)c2cccc(Cl)c2)c(-c2c(F)ccc(F)c2C)c1C#N [I-974] | < 10 µM |
| NC(=O)C[C@H](NC(=O)c1c[nH]nc1-c1cccc2ncnn12)c1cccc(Cl)c1 [I-237] | > 200 µM |
| CC(=O)n1ncc(C(=O)N[C@@H](CC(N)=O)c2cccc(Cl)c2)c1-c1ccccc1F [I-175] | > 200 µM |
| OC1(C2CCCCC2)CCC[C@@H](Nc2cc(N3CCCCC3)ccn2)C1 (stereo partly drawn) [I-804] | 10 to 100 µM |
| c1cncc(N2CCC[C@@H](Nc3cc(N4CCOCC4)ncn3)C2)c1 [I-12] | > 200 µM |
| CCc1cccc([C@H](CC(N)=O)NC(=O)c2cn[nH]c2-c2ccccc2F)c1 [I-638] | > 200 µM |
| Cc1cc(F)c(-c2[nH]ncc2C(=O)N[C@@H](CC(N)=O)c2cccc(Cl)c2)c(F)c1 [I-549] | < 10 µM |
| c1cc(N2CCC[C@@H](Nc3cc(N4CCOCC4)ncn3)C2)ccn1 [I-6] | > 200 µM |
| Cc1cccc(F)c1-c1c(C(=O)N[C@@H](CC(N)=O)c2cccc(Cl)c2)c[nH]c1C(=O)C1CCCCC1 [I-606] | < 10 µM |
| NC(=O)C[C@H](NC(=O)c1c[nH]nc1-c1ccccc1Cl)c1cccc(Cl)c1 [I-210] | > 200 µM |
| Cc1sc2c(c1C)C(c1ccc(Cl)cc1)=N[C@@H](CC(=O)NCCOCCOCCOCCOCCOCCn1ncc(C(=O)N[C@@H](CC(N)=O)c3cccc(Cl)c3)c1-c1ccccc1F)c1nnc(C)n1-2 [I-487] | > 200 µM |

Source: patent US20260373266A1, “PROTEIN DEGRADERS AND USES THEREOF” (KYMERA THERAPEUTICS, INC., priority 2022, published 2026)
